The values below come from PMC9063446, “Biochemical and in silico identification of the active site and the catalytic mechanism of the circadian deadenylase HESPERIN” (FEBS Open Bio, 2022).

Series [1] has as its target T1, AtHESPERIN (Hesperin) (Arabidopsis thaliana, UniProt A8MS41).
T1 construct: gene CCR4-4; HESPERIN cDNA in pATHRA (pET-15b derived), E. coli BL21-GOLD(DE3); N-terminal 6xHis tag cut by HRV 3C protease; SEC; oligomer, mainly trimer (~150 kDa)
T1 sequence (A8MS41 1-417): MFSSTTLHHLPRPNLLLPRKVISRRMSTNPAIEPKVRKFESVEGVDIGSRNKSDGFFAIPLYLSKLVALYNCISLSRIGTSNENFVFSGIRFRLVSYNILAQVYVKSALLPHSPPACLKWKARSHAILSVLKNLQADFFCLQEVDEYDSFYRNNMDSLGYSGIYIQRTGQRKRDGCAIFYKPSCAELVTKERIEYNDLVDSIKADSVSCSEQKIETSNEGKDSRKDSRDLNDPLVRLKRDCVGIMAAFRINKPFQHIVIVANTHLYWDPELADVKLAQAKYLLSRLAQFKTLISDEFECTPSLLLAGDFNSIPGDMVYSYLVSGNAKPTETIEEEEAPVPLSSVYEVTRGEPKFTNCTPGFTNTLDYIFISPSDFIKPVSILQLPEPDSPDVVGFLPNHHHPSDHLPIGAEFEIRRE
Briefly: colorimetric methylene blue poly(A) degradation assay, modified Hanes-Woolf plot. It is filed as biochemical. Particulars: substrate poly(A); Buffer R with 2 mM MgCl2, 0.1 M NaCl, pH 6.5, 25 °C; competitive, reaction product.

Series [2] concerns the molecule itself. The series is described as follows: native gel or EMSA; 7% PAGE under nondenaturing conditions for acidic proteins; 16 ug AtHESPERIN incubated with urea, up to 4 M; BSA and urease as mass standards. Background: In EMSA bound probe runs differently from free probe, usually more slowly.

As usually defined, the Ki is a measure of affinity in units of concentration, obtained from inhibition or displacement. Low readings indicate a stronger hold on the target, high ones a looser hold on the target. The molecule `Nc1ncnc2c1ncn2[C@@H]1O[C@H](COP(=O)(O)O)[C@@H](O)[C@H]1O` [AMP] returned an inhibition constant Ki in series [1] of 1800 ± 200 nM.

B1: AtHESPERIN (enzyme, Arabidopsis thaliana, UniProt A8MS41 1-417, looked up)
chain: T1 sequence (A8MS41 1-417)
notes: AtHESPERIN (Hesperin), circadian EEP deadenylase of Arabidopsis thaliana, UniProtKB A8MS41; cDNA cloned in pATHRA behind 6x His tag and HRV 3C site; The His tag was removed with HRV 3C protease (site LEVLFQ/GP), so residues of the site may be left at the N-terminus; It calls the oligomer mainly trimeric; also called native AtHESPERIN; wild-type AtHESPERIN; source: E. coli BL21-GOLD (DE3), …
The stoichiometry N is the number of molecules, sites or subunits per partner or assembly. On to B1, for which the “stoichiometry N” value in series [2] is 3.
